This is an account of results in ChEMBL document CHEMBL1201862, “PubChem BioAssay data set” (2004).

Molecules are shown by their SMILES.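 Growth conditions: 96-well plates. Treatment: test compound, 48 hours, 5 concentrations. Analysis: linear interpolation between bracketing concentrations; unreached endpoints set to highest concentration. GI50: concentration for 50% inhibition of growth.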 Activity calls are given as the source filed them. Cut-off read from the data, not from the text of the source: active = GI50 up to about 1.1 µM and inactive = higher. Some results are limits rather than exact numbers.

Holding throughout (assay): NCI anticancer screen, dose series, 48 h
Assay [1] has as its system CAKI-1.
The test system of assay [2] is DU-145.
Assay [3] deals with EKVX.
The subject of assay [4] is HCT-15.
In assay [5] the test system is HOP-92.
Assay [6] deals with HT-29.
The test system of assay [7] is M14.
In assay [8] the test system is MDA-MB-435.
The subject of assay [9] is Malme-3M.
For assay [10], the system named is NCI-H226.
The subject of assay [11] is NCI-H460.
Assay [12] deals with OVCAR-5.
The test system of assay [13] is RPMI-8226.
Assay [14] relates to RXF 393.
Assay [15] deals with SF-268.
Assay [16] deals with SF-295.
The test system of assay [17] is SK-MEL-5.
Assay [18] concerns SK-OV-3.
In assay [19] the test system is SNB-75.
In assay [20] the test system is SW-620.

Take `OCCCCCNc1nc(O)c2[nH]cnc2n1`: the GI50 in assay [1] is > 100 µM (inactive); in assay [2] it was > 100 µM (inactive); in assay [3] it was > 100 µM (inactive); in assay [4], > 100 µM; in assay [5] it was > 100 µM (inactive); in assay [6], > 100 µM (inactive). The GI50 in [7], in [8], in assay [9], in assay [10], in assay [11] and in assay [12] was > 100 µM (inactive) each time. Moreover, the GI50 in assay [13] was > 100 µM (inactive); in assay [14] it was > 10 µM (inactive); in assay [15], > 100 µM (inactive); in assay [16] it was > 10 µM (inactive); in assay [17], > 100 µM (inactive); in assay [18], > 10 µM (inactive). Moreover, the GI50 in [19] and in assay [20] was > 100 µM (inactive) each time.

In the case of `COc1ccc(/N=C2\C(=S)N(c3ccc(OC)cc3)/C(=N/S(=O)(=O)c3ccccc3)N2c2ccccc2)cc1`, the GI50 in [1] was 13.2 µM (inactive); in [2] it was 22.1 µM (inactive); in assay [3], 16.4 µM (inactive); in [4] it was 5.75 µM; in [5], 7.01 µM (inactive); in assay [6], 19.9 µM (inactive). Further, the GI50 in assay [7] is 4.9 µM (inactive); in [8] it was 7.87 µM (inactive); in assay [9], 15.1 µM (inactive); in assay [10], 16 µM (inactive); in assay [11], 23.8 µM (inactive); in [12] it was 17.3 µM (inactive). The GI50 in assay [13] was 1.45 µM (inactive); in assay [14], 5.22 µM (inactive); in assay [15] it was 8.87 µM (inactive); in assay [16], 22.2 µM (inactive); in assay [17], 4.57 µM (inactive); in [18] it was > 39.9 µM (inactive). The GI50 was 17.3 µM (inactive) in assay [19] and 2.62 µM (inactive) in [20].

On to `CN/C(N)=N/N=C1/C(=O)Nc2ccccc21`, for which the GI50 in assay [1] is > 100 µM (inactive); in assay [2], > 100 µM (inactive); in assay [3], > 100 µM (inactive); in [4], > 100 µM; in [5], > 100 µM (inactive); in assay [6], > 100 µM (inactive). In addition, the GI50 in [7], in assay [8], in [9], in assay [10], in assay [11] and in assay [12] was > 100 µM (inactive) throughout. For the same compound, the GI50 in assay [13], in assay [14], in [15], in assay [16], in assay [17] and in [18] was > 100 µM (inactive) each time. Also, the GI50 in assay [19] and in assay [20] was > 100 µM (inactive) each time.

Take `Cn1ccnc1CC(C)(O)c1ccccc1` (stereo not given): the GI50 is > 100 µM (inactive) in assay [1]; > 100 µM (inactive) in assay [2]; > 100 µM (inactive) in assay [3]; > 100 µM in assay [4]; > 100 µM (inactive) in assay [5]; > 100 µM (inactive) in assay [6]. For the same compound, the GI50 in assay [7], in [8], in assay [9], in assay [10], in [11] and in assay [12] was > 100 µM (inactive) in each case. Moreover, the GI50 in [13], in [14], in assay [15], in [16], in assay [17] and in [18] was > 100 µM (inactive) each time. The GI50 in assay [19] and in assay [20] was > 100 µM (inactive) each time.

Consider `CSc1nc(C)cc(Nc2ccc(O)c(CN3CCOCC3)c2)n1`, for which the GI50 is > 100 µM (inactive) in [1]; > 100 µM (inactive) in assay [2]; 83 µM (inactive) in assay [3]; > 100 µM in assay [4]; 62.8 µM (inactive) in assay [5]; 76.9 µM (inactive) in [6]. Besides, the GI50 in assay [7], in [8], in assay [9], in [10], in [11] and in [12] was > 100 µM (inactive) each time. Also, the GI50 in [13] is > 100 µM (inactive); in assay [14], > 100 µM (inactive); in [15] it was > 100 µM (inactive); in assay [16], > 100 µM (inactive); in assay [17], 65 µM (inactive); in assay [18] it was > 100 µM (inactive). In addition, the GI50 in [19] and in [20] was > 100 µM (inactive) each time.

With `CCSCC(N)C(=O)O` (stereo not given), the GI50 is > 100 µM (inactive) in assay [1]; > 100 µM (inactive) in assay [2]; > 100 µM (inactive) in [3]; > 100 µM in assay [4]; 0.0337 µM (active) in assay [5]; > 100 µM (inactive) in assay [6]. Moreover, the GI50 in assay [7], in assay [8], in [9], in assay [10], in assay [11] and in [12] was > 100 µM (inactive) in each case. For the same compound, the GI50 in [13], in assay [14], in [15], in assay [16], in [17] and in assay [18] was > 100 µM (inactive) each time. The GI50 in assay [19] and in [20] was > 100 µM (inactive) each time.

For `O=C(CNc1ccc([N+](=O)[O-])cc1)Nn1c(-c2ccccc2)nc2ccccc2c1=O`, the GI50 in assay [1] is 2.24 µM (inactive); in [2] it was 8.91 µM (inactive); in assay [3], 13.4 µM (inactive); in [4] it was 2.93 µM; in [5] it was 0.377 µM (active); in assay [6], 3.06 µM (inactive). The GI50 in assay [7] was 3.03 µM (inactive); in [8], 3.96 µM (inactive); in assay [9], 2.03 µM (inactive); in assay [10] it was 4.69 µM (inactive); in assay [11], 3.81 µM (inactive); in [12], 5.73 µM (inactive). The GI50 in assay [13] was 2.47 µM (inactive); in assay [14], 2.82 µM (inactive); in assay [15], 4.23 µM (inactive); in assay [16], 14.5 µM (inactive); in assay [17], 1.04 µM (active); in assay [18], 3.97 µM (inactive). In addition, the values for the GI50 in assay [19] and in [20] were 3.73 µM (inactive) and 2.39 µM (inactive), respectively.

On to `CO[C@H](c1ccccc1)[C@H](O)[C@](O)(c1ccccc1)P(=O)(OC)OC`, for which the GI50 in [1] was > 100 µM (inactive); in [2] it was > 100 µM (inactive); in assay [3], > 100 µM (inactive); in assay [4], > 100 µM; in assay [5], > 100 µM (inactive); in [6], > 100 µM (inactive). Further, the GI50 in assay [7], in assay [8], in [9], in [10], in assay [11] and in assay [12] was > 100 µM (inactive) in each case. The GI50 in assay [13], in assay [14], in assay [15], in [16], in assay [17] and in assay [18] was > 100 µM (inactive) each time. The GI50 in assay [19] and in assay [20] was > 100 µM (inactive) each time.
